Test [1] deals with Pyricularia oryzae (rice blast). The test can be described thus: whole plant or invertebrate. It is filed as in vivo. Conditions: foliar, read-out: RICE BLAST control rating.
Test [2] deals with Southern corn rootworm (Diabrotica undecimpuctata howardi Barber). The test can be described thus: Mite/insect screen, corn rootworm. In kind it is in vivo. The settings on record: Diabrotica, soil, read-out: CRW results (percent mortality); for mortality at 12 ppm: CRW rate 12.00 ppm; for mortality at 24 ppm: CRW rate 24.00 ppm. In outline:
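Five 2-3 instar larvae per cup were placed on sandy soil (15 g, with presoaked corn seed) treated 6–12 h earlier with 1 mL test solution, an emulsified acetone/alcohol formulation diluted in water. Cups kept at 23° C; mortality and phytotoxicity assessed as percent after standard exposures.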

Test [3] deals with southern armyworm (Spodopetra eridania Cramer). The test can be described thus: Mite/insect screen, Southern armyworm. In kind it is in vivo. Conditions: Spodoptera eridania, sprayed leaves, read-out: SAW results (percent mortality); for mortality at 200 ppm: rate 200 ppm; for mortality at 400 ppm: rate 400 ppm. In outline: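 Southern armyworm larvae placed in Petri dishes with two excised squash leaves that had been sprayed to runoff (10 psi) with emulsified compound and air-dried for 1 h. Mortality in percent recorded after a standard exposure period; formulation acetone/alcohol plus Toximul R and S, water-diluted.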

Test [4] relates to Twospotted spider mites (Tetranychus urticae Koch). The test can be described thus: Mite/insect screen, twospotted spider mites. In kind it is in vivo. Conditions: Tetranychus urticae, sprayed leaves, read-out: SM results (percent mortality); for mortality at 200 ppm: rate 200 ppm; for mortality at 400 ppm: rate 400 ppm. In outline: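 Percent mortality, along with phytotoxicity, was read after standard exposure periods. Beforehand, mites established on both surfaces of squash cotyledons received a runoff spray (10 psi) of water-diluted compound formulated in acetone/alcohol with sulfonate/nonionic emulsifiers.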

The subject of test [5] is melon aphids (Aphis gossvpii Glover). The test can be described thus: Mite/insect screen, melon aphids. In kind it is in vivo. The settings on record: Aphis, sprayed leaves, read-out: MA results (percent mortality); for mortality at 200 ppm: rate 200 ppm; for mortality at 400 ppm: rate 400 ppm. In outline: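 Percent mortality of melon aphids was assessed after standard exposure periods. Infested squash cotyledons had been sprayed on both leaf surfaces until runoff at 10 psi with water-diluted test solutions. Compounds were formulated in acetone/alcohol (50:50) containing emulsifiers.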

For test [6], the system named is Puccinia recondita tritici (leaf rust). The test can be described thus: Plant pathology screen (Test 1), leaf rust on wheat. Conditions: in Triticum aestivum, foliar, read-out: LEAF RUST control rating.
In test [7] the test system is Pseudoperonospora cubensis (downy mildew). Kind of test: Plant pathology screen (Test 1), downy mildew on squash. Conditions: foliar, read-out: DOWN MDEW control rating.
Test [8] has as its system Erysiphe graminis tritici (powdery mildew). Kind of test: Plant pathology screen (Test 1), powdery mildew on wheat. Conditions: Blumeria graminis, in Triticum aestivum, foliar, read-out: POWD MDEW control rating.
Test [9] concerns Botrytis cinerea (gray mold). Kind of test: Plant pathology screen (Test 1), gray mold on grape berries. The settings on record: read-out: GRAY MOLD control rating.

In general, mortality refers to the percentage killed.

Consider `Cc1cc2c(OCCc3ccc(C(F)(F)F)cc3)ncnc2o1` [Example 42, 6-methyl-4-[2-[4-(trifluoromethyl)phenyl]ethoxy]furo[2,3-d]pyrimidine], for which the pest or weed control at 400 µg/mL in test [1] lay within 20 to 89%; in test [6], 90 to 100%; in [7] it was 90 to 100%; in test [8] it was 20 to 89%; in [9], 0 to 19%. Besides, the mortality at 12 ppm in test [2] came out at 0%. Moreover, the mortality at 24 ppm in test [2] worked out at 0%. The mortality at 200 ppm in [3] is 0%; in [4], 0%; in test [5], 100%. The results for the mortality at 400 ppm in test [3], in [4] and in test [5] were 0%, 100% and 100%, respectively.

Regarding `Cc1cc2c(OCCc3ccc(OC(C)(C)C)cc3)ncnc2o1` [Example 43, 6-methyl-4-[2-[4-(t-butoxy)phenyl]ethoxy]furo[2,3-d]pyrimidine], the pest or weed control at 400 µg/mL lay in the range of 20 to 89% in test [1]; 90 to 100% in [6]; 90 to 100% in test [7]; 90 to 100% in test [8]; 0 to 19% in test [9]. Moreover, in test [2], the mortality at 12 ppm came out at 0%. In addition, the mortality at 24 ppm in [2] was 0%. The mortality at 200 ppm was found to be 0% in [3], 90% in test [4] and 90% in test [5]. The results for the mortality at 400 ppm in test [3], in test [4] and in test [5] were 0%, 80% and 80%, respectively.

`CCCCOc1ccc(CCOc2ncnc3oc(C)cc23)cc1` [Example 44, 4-[4-(4-butoxyphenyl)ethoxy]-6-methylfuro[2,3-d]pyrimidine]: the pest or weed control at 400 µg/mL lay within 0 to 19% in [1]; 90 to 100% in test [6]; 20 to 89% in test [7]; 0 to 19% in [8]; 0 to 19% in test [9]. Besides, the mortality at 24 ppm in test [2] came to 0%. Besides, the mortality at 400 ppm in [3], in test [4] and in test [5] was 0% in each case.

For `CCCCOc1ccc(CCOc2ncnc3oc(C)c(C)c23)cc1` [Example 45, 5,6-dimethyl-4-[2-[4-(n-butoxy)phenyl]ethoxy]furo[2,3-d]pyrimidine], the pest or weed control at 400 µg/mL was in the range of 0 to 19% in test [1]; 90 to 100% in [6]; 20 to 89% in test [7]; 20 to 89% in test [8]; 0 to 19% in test [9]. For the same compound, the mortality at 12 ppm in test [2] turned out to be 0%. In test [2], the mortality at 24 ppm was 0%. The results for the mortality at 200 ppm in test [3], in [4] and in test [5] were 0%, 90% and 90%, respectively. Besides, the mortality at 400 ppm in test [3] was determined as 0%; in test [4], 100%; in [5], 90%.

On to `Cc1cc2c(OCCc3ccc(C(C)(C)C)cc3)ncnc2o1` [Example 46, 4-[2-[4-(1,1-dimethylethyl)phenyl]ethoxy]-6-methylfuro[2,3-d]pyrimidine], for which the pest or weed control at 400 µg/mL in [1], in test [6], in [7], in test [8] and in test [9] was 0 to 19% each time. Moreover, the mortality at 12 ppm in test [2] is 0%. Also, in [2], the mortality at 24 ppm amounted to 0%. Moreover, the mortality at 200 ppm in test [3] was 0%; in test [4], 80%; in test [5], 90%. Further, the mortality at 400 ppm in test [3] came out at 0%; in test [4] it was 80%; in test [5] it was 60%.

Take `Cc1oc2ncnc(NCCc3ccc(OC(F)(F)C(F)F)cc3)c2c1C` [Example 47, N-[2-[4-(1,1,2,2-tetrafluoroethoxy)phenyl]ethyl]-5,6-dimethylfuro[2,3-d]pyrimidin-4-amine]: the pest or weed control at 400 µg/mL in [1] lay in the range of 90 to 100%; in test [6] it was 90 to 100%; in test [7], 90 to 100%; in test [8], 20 to 89%; in test [9], 0 to 19%. For the same compound, in [2], the mortality at 12 ppm amounted to 100%. Also, the mortality at 24 ppm in test [2] worked out at 80%. Further, the mortality at 200 ppm was 100% in [3], 90% in test [4] and 100% in test [5]. Further, the mortality at 400 ppm in test [3] is 0%; in test [4] it was 100%; in test [5] it was 100%.

As for `Cc1ccc(CCNc2ncnc3occ(C)c23)cc1` [Example 48, 5-methyl-N-[2-(4-methylphenyl)ethyl]furo[2,3-d]pyrimidin-4-amine], the pest or weed control at 400 µg/mL is 90 to 100% in [1]; 90 to 100% in [6]; 90 to 100% in test [7]; 90 to 100% in [8]; 0 to 19% in test [9]. The mortality at 12 ppm in test [2] was 60%. For the same compound, the mortality at 24 ppm in [2] was 100%. Moreover, the mortality at 200 ppm in test [3], in test [4] and in [5] was 0% throughout. The mortality at 400 ppm in test [3] was found to be 0%; in [4], 0%; in test [5], 80%.

Take `Cc1oc2ncnc(Oc3ccc(F)cc3)c2c1C` [Example 49, 5,6-dimethyl-4-(4-fluorophenoxy)furo[2,3-d]pyrimidine]: the pest or weed control at 400 µg/mL is 0 to 19% in [1]; 90 to 100% in test [6]; 0 to 19% in test [7]; 90 to 100% in test [8]; 0 to 19% in test [9]. For the same compound, the mortality at 12 ppm in [2] is 0%. In [2], the mortality at 24 ppm came to 0%. The mortality at 200 ppm in test [3] amounted to 80%; in [4], 0%; in test [5] it was 0%. Moreover, the mortality at 400 ppm in test [3], in test [4] and in test [5] was 0% throughout.

Turning to `Cc1oc2ncnc(OCCc3ccc(C(C)(C)C)cc3)c2c1C` [Example 50, 4-[2-[4-(t-butyl)phenyl]ethoxy]-5,6-dimethylfuro[2,3-d]pyrimidine], the pest or weed control at 400 µg/mL in [1] fell in the range of 20 to 89%; in test [6], 20 to 89%; in test [7], 20 to 89%; in [8], 20 to 89%; in test [9], 0 to 19%. Also, the mortality at 12 ppm in [2] is 0%. Also, the mortality at 24 ppm in test [2] was 0%. For the same compound, the mortality at 200 ppm in test [3], in test [4] and in test [5] was 0% each time. The mortality at 400 ppm in test [3] came out at 0%; in test [4], 100%; in [5] it was 100%.

Turning to `Cc1oc2ncnc(OCCc3ccc(-c4ccccc4)cc3)c2c1C` [Example 51, 4-[2-[4-biphenylyl]ethoxy]-5,6-dimethylfuro[2,3-d]pyrimidine], the pest or weed control at 400 µg/mL lay within 0 to 19% in [1]; 0 to 19% in test [6]; 90 to 100% in test [7]; 0 to 19% in test [8]; 0 to 19% in test [9]. In addition, in [2], the mortality at 12 ppm is 0%. Besides, in test [2], the mortality at 24 ppm is 0%. Also, the mortality at 200 ppm in test [3] was 0%; in test [4], 100%; in test [5] it was 90%. Besides, the mortality at 400 ppm worked out at 0% in test [3], 80% in test [4] and 80% in test [5].

With `COc1ccc(CCOc2ncnc3oc(C)c(C)c23)cc1` [Example 52, 4-[2-(4-methoxyphenyl)ethoxy]-5,6-dimethylfuro[2,3-d]pyrimidine], the pest or weed control at 400 µg/mL in test [1] lay in the range of 90 to 100%; in test [6], 90 to 100%; in [7] it was 90 to 100%; in test [8], 90 to 100%; in test [9], 0 to 19%. Further, the mortality at 12 ppm in test [2] worked out at 0%. In test [2], the mortality at 24 ppm came out at 0%. For the same compound, the mortality at 200 ppm is 0% in test [3], 0% in test [4] and 80% in test [5]. In addition, the figures for the mortality at 400 ppm in [3], in test [4] and in test [5] were 0%, 0% and 100%, respectively.

For the origin of these results see patent US5486516A, “Furopyrimidine derivatives” (DowElanco, priority 1993, dated 1996).
